# Test results as given in US8603964B2, “Methods for modulating angiogenesis via dystrophin Dp71” (Institut National de la Sante et de la Recherche Medicale …, priority 2008, dated 2013).
# Assays:
# [1] = test system: aortic rings explants of wt mice (C57BL/6); test: Mouse aortic ring explant neovessel formation, wild-type mice; type: cell-based
# Source text: Thoracic aortas were removed from 2 months-old mice (C57BL/6 and Dp71-null mice) killed by CO2 asphyxiation and immediately transferred to a culture dish containing ice-cold endothelial cell basal medium (EGM-2; Cambrex Bioscience). The periaortic fibroadipose tissue was carefully removed with fine microdissecting forceps and scissors, paying special attention not to damage the aortic wall. One millimeters-long aortic rinaortic rings explants gs (15 per aorta from 12 mice) were sectioned and rinsed extensively in eight consecutive washes of EGM-2. The rings were then individually embedded in 48-well plates previously coated with 50 μl synthetic basement membrane (Matrigel; BD Bioscience) per well. After 1 hour, 500 μl EGM-2 was added to each well, and the cultures were incubated at 37° C. for 5 days. The culture medium was change each day. […] For all cell treatment, the final DMSO concentration was adjusted to 0.1%. The aortic rings were photographed on day 4 at ×2 magnification with a macroscope (Leica). The angiogenic response was determined by measuring the area of neovessel formation on computer (ImageJ or Photoshop software).
# [2] = test system: aortic rings explants of Dp71-null mice; test: Mouse aortic ring explant neovessel formation, Dp71-null mice; type: cell-based; parameters: dose or concentration left out as unconfirmed; conditions: same treatment with beta-nf, day 4
# Source text: The Dp71-null mice strain was obtained by replacing, via homologous recombination, most of the first and unique exon of Dp71 and of a small part of the Dp71 first intron with a sequence encoding a β-gal-neomycine-(beta-gal) resistance chimeric protein (β-geo). This enabled to monitor with great sensitivity the activity of the promoter using X-gal staining (Sarig et al., 1999).
# Thoracic aortas were removed from 2 months-old mice (C57BL/6 and Dp71-null mice) killed by CO2 asphyxiation and immediately transferred to a culture dish containing ice-cold endothelial cell basal medium (EGM-2; Cambrex Bioscience). The periaortic fibroadipose tissue was carefully removed with fine microdissecting forceps and scissors, paying special attention not to damage the aortic wall. One millimeters-long aortic rinaortic rings explants gs (15 per aorta from 12 mice) were sectioned and rinsed extensively in eight consecutive washes of EGM-2. The rings were then individually embedded in 48-well plates previously coated with 50 μl synthetic basement membrane (Matrigel; BD Bioscience) per well. After 1 hour, 500 μl EGM-2 was added to each well, and the cultures were incubated at 37° C. for 5 days. The culture medium was change each day. […] The angiogenic response was determined by measuring the area of neovessel formation on computer (ImageJ or Photoshop software).
# Dp71 = conditions: cited from earlier work
smiles,measurement,setting,value
"O=c1cc(-c2ccccc2)oc2ccc3ccccc3c12 [beta-nf, beta-naphtoflavone]",inhibition of neovessel formation,"[1]; explants of wt mice, beta-nf in 0.1% DMSO, area of neovessel formation on day 4, P<0.001",50%
same,neoangiogenesis in aortic rings explants (in words),[1]; wild mice strain expressing Dp71,inhibition of neoangiogenesis
same,effect on neovessel formation,[2],without effect
same,Dp71 expression,Dp71,inhibits Dp71 expression
